Data reported in PMC4919555 (EBioMedicine, 2016).
Where two headings read alike, the source gives them in different places.

What was measured:
[1] = system: M. tuberculosis wild-type, katG-null and katG-overexpressing strains; format: cell-based
[2] = system: M. tuberculosis clinical isolates; format: cell-based

Compound | Response of katG-null mutant [1] | Response of katG-overexpressing strain ([1]; 3.6 μM (0.5 μg/ml), 4 days) | Ratio (MIC relative to H37Rv) ([2]; CI1, − 15 C/T inhA) | Ratio (MIC relative to H37Rv) ([2]; CI2, − 15 C/T inhA) | Ratio (MIC relative to H37Rv) ([2]; CI3, − 15 C/T inhA) | Killing of katG-null mutant strain [1]
NNC(=O)c1ccncc1 [INH, isoniazid] | resistant | more sensitive compared to the wild-type strain | 6 | 3 | 3 | 
Cc1csc([C@](C)(O)c2nnc(Nc3ccn(Cc4csc(C)n4)n3)s2)n1 [GSK693, (S)-1-(4-methylthiazol-2-yl)-1-(5-((1-((2-methylthiazol-4-yl)methyl)-1H-pyrazol-3-yl)amino)-1,3,4-thiadiazol-2-yl)ethanol] |  |  |  |  |  | killed equally well as the wild-type strain
